Measurements as given in patent publication US20180155344A1, “TRICYCLIC PIPERIDINE COMPOUNDS” (ACTELION PHARMACEUTICALS LTD, priority 2015, published 2018).

Each compound was assayed against T1, human TPH1 (Homo sapiens, UniProt P17752) (assay: biochemical). Details: not given.
T1 sequence (P17752 1-444): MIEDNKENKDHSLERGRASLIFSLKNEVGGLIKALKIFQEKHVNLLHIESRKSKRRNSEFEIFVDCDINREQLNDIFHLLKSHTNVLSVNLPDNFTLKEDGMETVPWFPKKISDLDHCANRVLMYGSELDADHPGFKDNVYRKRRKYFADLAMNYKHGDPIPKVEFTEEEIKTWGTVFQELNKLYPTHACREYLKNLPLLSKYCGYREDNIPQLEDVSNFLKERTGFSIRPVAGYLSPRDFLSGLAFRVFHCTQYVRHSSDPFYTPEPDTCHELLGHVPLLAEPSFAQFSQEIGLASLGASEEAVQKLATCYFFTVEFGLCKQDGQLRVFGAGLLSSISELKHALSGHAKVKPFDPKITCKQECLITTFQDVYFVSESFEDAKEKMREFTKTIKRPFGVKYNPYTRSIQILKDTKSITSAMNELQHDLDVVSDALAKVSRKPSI
Procedure, shortened: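 Inhibition is derived from 5-hydroxy-L-tryptophan fluorescence (540 nm emission, 300 nm excitation) after perchloric acid stop, relative to DMSO vehicle. Recombinant full-length human enzyme (40-80 nM) reacts with 40 μM tryptophan plus 100 μM methyltetrahydropterin, pH 7.6 Tris/DTT/catalase, 15° C, 60 min.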

IC50 | Compound
0.009 µM | CCc1cc2nc3c(n2cc1C)C(c1ccc(OC)c(OC)c1)N(C(=O)COc1ccc2ccccc2c1)CC3 (centres unmarked) [Example 6.1.2, 1-(1-(3,4-dimethoxyphenyl)-7-ethyl-8-methyl-3,4-dihydroimidazo[1,2-a:5,4-c′]dipyridin-2(1H)-yl)-2-(naphthalen-2-yloxy)ethan-1-one]
0.146 µM | CCc1nc(C)ccc1OCC(=O)N1CCc2nc3ccccn3c2C1c1ncc(C2CC2)cc1F (centres unmarked) [Example 1.12.3, 1-(1-(5-cyclopropyl-3-fluoropyridin-2-yl)-3,4-dihydroimidazo[1,2-a:5,4-c′]dipyridin-2(1H)-yl)-2-((2-ethyl-6-methylpyridin-3-yl)oxy)ethan-1-one]
0.055 µM | CCc1ncccc1OCC(=O)N1CCc2nc3ccccn3c2C1c1ccc(Cl)cc1F (centres unmarked) [Example 1.4.2, 1-(1-(4-chloro-2-fluorophenyl)-3,4-dihydroimidazo[1,2-a:5,4-c′]dipyridin-2(1H)-yl)-2-((2-ethylpyridin-3-yl)oxy)ethan-1-one]
0.074 µM | COc1ccc(C2c3c(nc4cc(C(F)(F)F)ccn34)CCN2C(=O)COc2ccc(CN3CCOCC3)cc2Cl)nc1 (centres unmarked) [Example 3.52.2, 2-(2-chloro-4-(morpholinomethyl)phenoxy)-1-(1-(5-methoxypyridin-2-yl)-7-(trifluoromethyl)-3,4-dihydroimidazo[1,2-a:5,4-c′]dipyridin-2(1H)-yl)ethan-1-one]
0.064 µM | Cn1nc(OCC(=O)N2CCc3nc4cc(C(F)(F)F)ccn4c3C2c2ccc(Cl)cc2F)c(Cl)c1C(F)(F)F (centres unmarked) [Example 3.4.3, 2-((4-chloro-1-methyl-5-(trifluoromethyl)-1H-pyrazol-3-yl)oxy)-1-(1-(4-chloro-2-fluorophenyl)-7-(trifluoromethyl)-3,4-dihydroimidazo[1,2-a:5,4-c′]dipyridin-2(1H)-yl)ethan-1-one]
0.39 µM | COc1ccc(C2c3c(nc4cc(Cl)ccn34)CCN2C(=O)COc2ccc([N+](=O)[O-])cc2Cl)cc1OC (centres unmarked) [Example 2.1.4, 1-(7-chloro-1-(3,4-dimethoxyphenyl)-3,4-dihydroimidazo[1,2-a:5,4-c′]dipyridin-2(1H)-yl)-2-(2-chloro-4-nitrophenoxy)ethan-1-one]
0.422 µM | COc1ccc(C2c3c(nc4cc(C(F)(F)F)ccn34)CCN2C(=O)COc2cccc(C(F)(F)F)c2)cc1OC (centres unmarked) [Example 3.1.9]
0.005 µM | O=C(COc1ccc(N2CCOCC2)nc1Cl)N1CCc2nc3ccccn3c2C1c1ccc(Cl)cc1F (centres unmarked) [Example 1.4.5, 1-(1-(4-chloro-2-fluorophenyl)-3,4-dihydroimidazo[1,2-a:5,4-c′]dipyridin-2(1H)-yl)-2-((2-chloro-6-morpholinopyridin-3-yl)oxy)ethan-1-one]
0.038 µM | CS(=O)(=O)Nc1ccc(OCC(=O)N2CCc3nc4ccccn4c3C2c2ccc(OCCO)cc2F)c(Cl)n1 (centres unmarked) [Example 1.22.2, N-(6-Chloro-5-(2-(1-(2-fluoro-4-(2-hydroxyethoxy)phenyl)-3,4-dihydroimidazo[1,2-a:5,4-c′]dipyridin-2(1H)-yl)-2-oxoethoxy)pyridin-2-yl)methanesulfonamide]
0.008 µM | CS(=O)(=O)Nc1ccc(OCC(=O)N2CCc3nc4cc(Cl)ccn4c3C2c2ccc(Cl)cc2F)c(Cl)n1 (centres unmarked) [Example 2.4.1, N-(6-chloro-5-(2-(7-chloro-1-(4-chloro-2-fluorophenyl)-3,4-dihydroimidazo[1,2-a:5,4-c′]dipyridin-2(1H)-yl)-2-oxoethoxy)pyridin-2-yl)methanesulfonamide]
0.008 µM | O=C(COc1ccc(N2CCOCC2)nc1Cl)N1CCc2nc3ccccn3c2C1c1ccc(C2CC2)nc1F (centres unmarked) [Example 1.13.1, 2-((2-chloro-6-morpholinopyridin-3-yl)oxy)-1-(1-(6-cyclopropyl-2-fluoropyridin-3-yl)-3,4-dihydroimidazo[1,2-a:5,4-c′]dipyridin-2(1H)-yl)ethan-1-one]
0.122 µM | COc1ccc(C2c3c(nc4ccc(F)cn34)CCN2C(=O)COc2ccc3ccccc3c2)cc1OC (centres unmarked) [Example 11.1.1, 1-(1-(3,4-dimethoxyphenyl)-8-fluoro-3,4-dihydroimidazo[1,2-a:5,4-c′]dipyridin-2(1H)-yl)-2-(naphthalen-2-yloxy)ethan-1-one]
0.021 µM | CCc1cc(N2CCN(C)CC2)ccc1OCC(=O)N1CCc2nc3cc(C(F)(F)F)ccn3c2C1c1ccc(OC)c(OC)c1 (centres unmarked) [Example 3.1.32, 1-(1-(3,4-dimethoxyphenyl)-7-(trifluoromethyl)-3,4-dihydroimidazo[1,2-a:5,4-c′]dipyridin-2(1H)-yl)-2-(2-ethyl-4-(4-methylpiperazin-1-yl)phenoxy)ethan-1-one]
0.316 µM | COc1ccc(C2c3c(nc4cc(Cl)ccn34)CCN2C(=O)COc2ccc(CN3CCOCC3)nc2Cl)cc1OC (centres unmarked) [Example 2.1.5, 1-(7-chloro-1-(3,4-dimethoxyphenyl)-3,4-dihydroimidazo[1,2-a:5,4-c′]dipyridin-2(1H)-yl)-2-((2-chloro-6-(morpholinomethyl)pyridin-3-yl)oxy)ethan-1-one]
0.203 µM | CCc1ncc(C2c3c(nc4cc(C(F)(F)F)ccn34)CCN2C(=O)COc2ccc3ccccc3c2)cn1 (centres unmarked) [Example 3.54.1, 1-(1-(2-ethylpyrimidin-5-yl)-7-(trifluoromethyl)-3,4-dihydroimidazo[1,2-a:5,4-c′]dipyridin-2(1H)-yl)-2-(naphthalen-2-yloxy)ethan-1-one]
0.044 µM | COc1ccc(C2c3c(nc4cc(C(F)(F)F)ccn34)CCN2C(=O)COc2ccc3ccccc3c2)cc1 (centres unmarked) [Example 3.24.1, 1-(1-(4-methoxyphenyl)-7-(trifluoromethyl)-3,4-dihydroimidazo[1,2-a:5,4-c′]dipyridin-2(1H)-yl)-2-(naphthalen-2-yloxy)ethan-1-one]
0.266 µM | COc1ncc(C2c3c(nc4cc(C(F)(F)F)ccn34)CCN2C(=O)COc2ccc(CN3CCOCC3)cc2Cl)cn1 (centres unmarked) [Example 3.55.2, 2-(2-chloro-4-(morpholinomethyl)phenoxy)-1-(1-(2-methoxypyrimidin-5-yl)-7-(trifluoromethyl)-3,4-dihydroimidazo[1,2-a:5,4-c′]dipyridin-2(1H)-yl)ethan-1-one]
0.02 µM | O=C(COc1ccc(CN2CCOCC2)cc1Cl)N1CCc2nc3cc(C(F)(F)F)ccn3c2C1c1ccc(Cl)cc1 (centres unmarked) [Example 3.30.2, 2-(2-chloro-4-(morpholinomethyl)phenoxy)-1-(1-(4-chlorophenyl)-7-(trifluoromethyl)-3,4-dihydroimidazo[1,2-a:5,4-c′]dipyridin-2(1H)-yl)ethan-1-one]
0.013 µM | O=C(COc1cccnc1C(F)(F)F)N1CCc2nc3ccccn3c2C1c1ccc(C2CC2)cc1F (centres unmarked) [Example 1.5.6, 1-(1-(4-cyclopropyl-2-fluorophenyl)-3,4-dihydroimidazo[1,2-a:5,4-c′]dipyridin-2(1H)-yl)-2-((2-(trifluoromethyl)pyridin-3-yl)oxy)ethan-1-one]
0.195 µM | O=C(COc1ccc2ccccc2c1)N1CCc2nc3cc(C(F)(F)F)ccn3c2C1c1ccnc(Cl)c1 (centres unmarked) [Example 3.56.1, 1-(1-(2-chloropyridin-4-yl)-7-(trifluoromethyl)-3,4-dihydroimidazo[1,2-a:5,4-c′]dipyridin-2(1H)-yl)-2-(naphthalen-2-yloxy)ethan-1-one]
0.008 µM | O=C(COc1ccc(N2CCOCC2)nc1Cl)N1CCc2nc3cccnn3c2C1c1ccc(C2CC2)cc1F (centres unmarked) [Example 16.1.2, 2-((2-chloro-6-morpholinopyridin-3-yl)oxy)-1-(9-(4-cyclopropyl-2-fluorophenyl)-6,9-dihydropyrido[4′,3′:4,5]imidazo[1,2-b]pyridazin-8(7H)-yl)ethan-1-one]
0.222 µM | COC(=O)c1ccc(OCC(=O)N2CCc3nc4ccccn4c3[C@@H]2c2ncc(Cl)cc2F)c(Cl)n1 [Example 1.14.2, methyl (R)-6-chloro-5-(2-(1-(5-chloro-3-fluoropyridin-2-yl)-3,4-dihydroimidazo[1,2-a:5,4-c′]dipyridin-2(1H)-yl)-2-oxoethoxy)picolinate]
0.077 µM | O=C(COc1ccc(CN2CCOCC2)cc1Cl)N1CCc2nc3cc(C(F)(F)F)ccn3c2C1c1ccc(C(F)(F)F)cc1 (centres unmarked) [Example 3.28.2, 2-(2-chloro-4-(morpholinomethyl)phenoxy)-1-(7-(trifluoromethyl)-1-(4-(trifluoromethyl)phenyl)-3,4-dihydroimidazo[1,2-a:5,4-c′]dipyridin-2(1H)-yl)ethan-1-one]
0.1 µM | Cc1ccc(C2c3c(nc4cc(C(F)(F)F)ccn34)CCN2C(=O)COc2ccc(CN3CCOCC3)cc2Cl)nc1 (centres unmarked) [Example 3.50.2, 2-(2-chloro-4-(morpholinomethyl)phenoxy)-1-(1-(5-methylpyridin-2-yl)-7-(trifluoromethyl)-3,4-dihydroimidazo[1,2-a:5,4-c′]dipyridin-2(1H)-yl)ethan-1-one]
0.06 µM | COc1ccc(COc2cc(C3c4c(nc5cc(Cl)ccn45)CCN3C(=O)COc3ccc4ccccc4c3)ccc2OC)cc1 (centres unmarked) [Example 2.7.1, 1-(7-chloro-1-(4-methoxy-3-((4-methoxybenzyl)oxy)phenyl)-3,4-dihydroimidazo[1,2-a:5,4-c′]dipyridin-2(1H)-yl)-2-(naphthalen-2-yloxy)ethan-1-one]

Same assay, conditions: Table 1; full length human TPH1, 40 μM L-tryptophan, 15° C., 60 minutes; mean if determined several times

Compound | IC50
1-(1-(4-(aminomethyl)phenyl)-7-(trifluoromethyl)-3,4-dihydroimidazo[1,2-a:5,4-c′]dipyridin-2(1H)-yl)-2-(2-chloro-4-(morpholinomethyl)phenoxy)ethan-1-one [Example 3.31.2] | 0.145 µM
